# From article PMC5038272, “Glutamate Racemase Is the Primary Target of β-Chloro-D-Alanine in Mycobacterium tuberculosis” (Antimicrobial Agents and Chemotherapy, 2016)
# Tests used:
# [1] = target: T1, alanine racemase (BsAlr) (Bacillus subtilis, UniProt P10725); test: time-dependent inactivation kinetics (kinact/Ki […] ^−[…] s^−[…]), partition ratio, dialysis; format: biochemical
# T1 construct: gene alr1; recombinant BsAlr
# T1 sequence (P10725 1-389): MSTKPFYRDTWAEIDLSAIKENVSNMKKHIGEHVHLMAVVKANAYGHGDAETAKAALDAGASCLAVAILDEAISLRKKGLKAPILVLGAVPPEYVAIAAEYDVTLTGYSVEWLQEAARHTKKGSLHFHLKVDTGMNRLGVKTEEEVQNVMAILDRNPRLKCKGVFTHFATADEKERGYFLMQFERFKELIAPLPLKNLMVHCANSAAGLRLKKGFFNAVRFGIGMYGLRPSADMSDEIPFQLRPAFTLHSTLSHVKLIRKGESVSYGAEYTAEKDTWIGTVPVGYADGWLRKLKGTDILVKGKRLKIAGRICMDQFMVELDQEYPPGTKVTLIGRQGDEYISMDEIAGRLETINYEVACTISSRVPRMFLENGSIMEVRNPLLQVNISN
# [2] = target: T2, alanine racemase (MtAlr) (Mycobacterium tuberculosis, UniProt P9WQA9); test: time-dependent inactivation kinetics (poor inactivator, kinact/Ki […] ^−[…] s^−[…]), partition ratio […] dialysis, intact ESI-MS; format: biochemical
# T2 construct: gene alr
# [3] = target: T3, alanine racemase (EcAlr) (Escherichia coli, UniProt P0A6B4); test: time-dependent inactivation kinetics, partition ratio, dialysis, intact ESI-MS; format: biochemical
# T3 construct: gene alr; recombinant EcAlr
# [4] = target: T4, glutamate racemase (BsMurI) (Bacillus subtilis, UniProt P94556); test: time-dependent inactivation kinetics (kinact/Ki), dialysis, intact ESI-MS (+[…]), tryptic LC-MS/MS; format: biochemical; details: read-out: time-dependent inactivation kinetics (kinact/Ki), dialysis, intact ESI-MS (+87)
# T4 construct: gene racE; recombinant BsMurI
# [5] = target: T4, glutamate racemase (BsMurI); test: intact ESI-MS covalent adduct and tryptic LC-MS/MS; format: binding
# [6] = target: T3, alanine racemase (EcAlr); test: partition ratio of inactivation, purified enzyme; format: biochemical
# [7] = target: T1, alanine racemase (BsAlr); test: partition ratio of inactivation, purified enzyme; format: biochemical
# [8] = target: T2, alanine racemase (MtAlr); test: partition ratio of inactivation, purified enzyme; format: biochemical
# T4 sequence (P94556 whole entry): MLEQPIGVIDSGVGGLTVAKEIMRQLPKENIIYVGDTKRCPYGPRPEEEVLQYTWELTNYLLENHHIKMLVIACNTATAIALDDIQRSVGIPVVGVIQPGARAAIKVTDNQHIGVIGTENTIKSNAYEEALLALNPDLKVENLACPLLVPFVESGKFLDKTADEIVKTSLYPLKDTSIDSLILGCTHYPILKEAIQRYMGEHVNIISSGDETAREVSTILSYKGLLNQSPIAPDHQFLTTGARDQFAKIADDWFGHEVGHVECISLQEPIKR
# T2 sequence (P9WQA9 whole entry): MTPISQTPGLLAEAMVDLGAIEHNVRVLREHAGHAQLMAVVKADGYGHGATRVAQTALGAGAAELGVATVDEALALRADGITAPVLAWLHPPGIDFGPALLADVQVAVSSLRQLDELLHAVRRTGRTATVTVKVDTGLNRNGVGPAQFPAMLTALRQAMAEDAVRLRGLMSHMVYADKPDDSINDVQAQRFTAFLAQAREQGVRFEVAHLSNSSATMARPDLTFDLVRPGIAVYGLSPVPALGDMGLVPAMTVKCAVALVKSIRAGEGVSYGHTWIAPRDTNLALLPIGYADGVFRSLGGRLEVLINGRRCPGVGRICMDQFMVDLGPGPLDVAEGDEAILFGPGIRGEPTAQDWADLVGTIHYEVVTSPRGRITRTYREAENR
# T3 sequence (P0A6B4 whole entry): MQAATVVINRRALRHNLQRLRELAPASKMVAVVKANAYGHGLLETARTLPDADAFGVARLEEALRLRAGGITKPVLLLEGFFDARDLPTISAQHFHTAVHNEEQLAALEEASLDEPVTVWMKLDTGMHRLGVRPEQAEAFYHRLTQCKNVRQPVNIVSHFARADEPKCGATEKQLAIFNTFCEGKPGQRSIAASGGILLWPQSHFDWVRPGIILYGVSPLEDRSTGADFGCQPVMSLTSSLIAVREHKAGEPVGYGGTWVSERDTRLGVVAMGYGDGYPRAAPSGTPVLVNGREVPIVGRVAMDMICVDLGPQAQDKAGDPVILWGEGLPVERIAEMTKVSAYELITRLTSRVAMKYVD
smiles,measurement,setting,value
"N[C@H](CCl)C(=O)O [BCDA, β-chloro-D-alanine]",KI (inactivation),[1],130 to 230 µM
same,KI (inactivation),[2],130 to 230 µM
same,KI (inactivation),[3],130 to 230 µM
same,kinact/KI,[4],2.7 M⁻¹ s⁻¹
"N[C@@H](CCl)C(=O)O [BCLA, β-chloro-L-alanine]",intact ESI-MS covalent adduct and tryptic LC-MS/MS,[5],"BCLA modified BsMurI predominantly at C74, the cysteine residue responsible for deprotonation of an incoming D-Glu substrate"
"CC(=O)OC[C@@H](N)C(=O)O [OADS, O-acetyl–D-serine]","partition ratio of inactivation, purified enzyme",[6],partition ratios were compared for the structurally and mechanistically similar Alr inhibitor O-acetyl–D-serine (OADS)
same,"partition ratio of inactivation, purified enzyme",[7],partition ratios were compared for the structurally and mechanistically similar Alr inhibitor O-acetyl–D-serine (OADS)
same,"partition ratio of inactivation, purified enzyme",[8],partition ratios were compared for the structurally and mechanistically similar Alr inhibitor O-acetyl–D-serine (OADS)
